According to US20120093947A1, “METHOD OF TREATING REACTIVE AIRWAY DISEASE” (UNITED STATES DEPARTMENT OF VETERANS AFFAIRS, priority 2009, published 2012):
Where a name gives a salt, the structure may show the parent alone.

How the values were obtained:
MPO [1] = target: T1, MPO (Homo sapiens, UniProt P05164); assay: EPR of ascorbate radicals during oxidation of β2-agonists by MPO/H2O2; assay type: biochemical; design: Myeloperoxidase (MPO) from human leucocytes (lyophilized powder); purchased Axxora, LLC (San Diego, Calif.); host or cells: human leucocytes (natural source); conditions: 100 μM ascorbate, MPO 0.01 U/250 μL, H2O2 39 μM, pH 7.0
Method: (§1) The sample is transferred to a flat aqueous EPR cell and recording is started one minute after initiation of the reaction. The spectra of DMPO adducts are recorded using the same parameters as above but the sweeping rate is 8 mT/41.92 s. The EPR spectra of ascorbate radicals are obtained using microwave power 5 mW, modulation amplitude 0.05 mT, scan rate 4 mT/41.92 s. EPR spectra shown are an average of 5 scans and represent results of a typical experiment.
Formation of Asc^•− during oxidation of β2-agonists by MPO/H2O2 in the presence of 100 μM AscH^− is investigated by EPR. […] Spectrum A is the EPR of 100 μM ascorbate without additives. Sprectrun B is the EPR spectrum of 100 μM ascorbate in the presence of MPO (0.01 U/250 μL) and H2O2 (39 μM). Spectra C and D are the EPR spectra of 100 μM ascorbate in the presence of MPO (0.01 U/250 μ), H2O2 (39 μM), and 40 μM and 100 μM of salbutamol, respectily. Spectrum E is the EPR spectrum of 100 μM ascorbate in the presence of MPO (0.01 U/250 μL), H2O2 (39 μM) and 20 μM of fenoterol. All reactions occur in pH 7.0 buffer (50 mM) containing DTPA (0.2 mM).

[2] = test system: murine airway smooth muscle cells; assay: cAMP production in airway smooth muscle cells, fluorescent detection assay; assay type: cell-based; conditions: 15 minutes, read-out: EC50, stimulation of cAMP synthesis
Method: For these studies, cells are grown to near-confluence in 96-well plates. After washing with PBS, cells were treated for 15 minutes with either PBS vehicle or the indicated concentration of isoproterenol. The reaction is then halted using the supplied stop buffer, after which the resultant sample is processed for fluorescent detection per the manufacturer's instructions. The cAMP content for each sample is determined by extrapolating values to a standard curve prepared with known concentrations of cAMP.

[3] = human
Method: Exhaled breath condensate (“EBC”) samples. EBC samples are collected during 10 min of quiet breathing through a single-use disposable RTube collector (Respiratory Research, Inc., Charlottesville, Va., USA) while subjects are wearing a nose clip. The aluminum sleeve of the device is cooled to an initial temperature of −20° C. prior to collection. After collection, a plunger is used to pool the condensed material within the tube into a single sample (about 1.0 ml). Samples are stored in the reaction tube at a temperature of −80° C. until thawed and processed for analysis.
Mass Spectrometry. The experiment is performed on a Thermo Fisher Scientific LTQ-FT, a hybrid instrument consisting of a linear ion trap and a Fourier transform ion cyclotron resonance mass spectrometer. Liquid chromatography separation of the sample components utilizes a Waters XBridge™ C18 3.5 μm 2.1×100 mm column, Finnigan Surveyor MS pump, and Finnigan Micro AS autosampler. A 200 μL/min gradient elution of water and acetonitrile, both containing 0.1% formic acid, occurs as follows: 5% to 32% acetonitrile in first eight minutes followed by a rapid rise to 95% acetonitrile within the next minute, held at 95% for an additional seven minutes. […]

MPO [4] = target: T1, MPO; assay: EPR spin trapping of GS radicals (DMPO/SG adduct) with MPO/H2O2; assay type: biochemical; design: Myeloperoxidase (MPO) from human leucocytes (lyophilized powder); purchased Axxora, LLC (San Diego, Calif.); conditions: 2 μM fenoterol, 4 mM GSH, 18 mM DMPO, pH 7.0
Method: as §1
Spectrum e is the same reaction as spectrum d with the exception that no GSH is used.
The EPR spectrum generated in the presence of 2 μM fenoterol (FIG. 3, section B, spectrum a) is approximately a two-fold more intense than that observed in the presence of 80 μM salbutamol (FIG. 3, section A, spectrum b). This confirms the higher reactivity of a metabolite(s) derived from fenoterol. […] The higher stimulatory action of fenoterol, when compared to that of salbutamol, implies that the compound's resorcinol moiety may play a dominating role in the interaction with GSH. The proposed cycle of redox reactions involving fenoterol, AscH^− and GSH is depicted in reaction B, presented earlier.

MPO [5] = target: T1, MPO; assay: Oxidation of β2-agonists by MPO/H2O2, spectrophotometric ΔA315; assay type: biochemical; design: Myeloperoxidase (MPO) from human leucocytes (lyophilized powder); purchased Axxora, LLC (San Diego, Calif.); host or cells: human leucocytes (natural source); conditions: 100 μM AscH−, 200 mU/mL MPO, 50 μM H2O2
Method: Spectrophotometric Measurements. Spectra are measured using an Agilent diode array spectrophotometer model 8453 (Agilent Technologies, Inc., Santa Clara, Calif.). Oxidation of β2-agonists is studied by measuring absorption spectra at designated time points following reaction starts. Samples are prepared in 50 mM acetate buffer (pH 5.0), 50 and 100 mM phosphate buffers (pH 7.0 and 8.0) and 100 mM Tris/HCl (pH 9.19). All buffers contain DTPA (100 and 200 μM) and measurements are performed at an ambient temperature of 20° C. The reaction is started by the addition of a small aliquot of H2O2 (2, 5 or 10 μL), or glucose oxidase (1 μL), if glucose/glucose oxidase was used to generate H2O2, to a sample containing a studied compound, peroxidase and, if required, an inhibiting co-factor. Time course measurements are carried out following changes in absorbance at 315 nm in 15 second intervals versus absorbance at 800 nm, where none of the compounds absorb. The 315 nm wavelength is chosen because β2-agonists' oxidation products absorb intensely near 315 nm, and because it is close to the absorption maximum of tyrosine dimers.
The concentration of AscH^− in airway fluid was estimated to be near 100 μM (Id.), so we use concentrations within this physiological range. […] AscH^− affects oxidation of salbutamol and fenoterol similarly, causing delay in the net oxidation of both drugs. A315 increases after a lag period, the duration of which depends on AscH^− concentration. Net oxidation of the drugs occurs only when AscH^− is consumed. […] This is understandable given that the concentration of H2O2 was only 50 μM and the peroxide was used to oxidize both the drugs and AscH^−. […] The proposed mechanisms of inhibition are reactions A and B, shown below, which reveal that recovery of the drug occurs at the expense of AscH^−, which is oxidized to the ascorbate radical (A^•−).
[…]. The extent of oxidation is expressed as ΔA315±SE versus control (in %) during 22 minutes of reaction at 20° C. Values are the mean of at least duplicate determinations.

LPO = target: T2, LPO (Bos taurus, UniProt P80025); assay: Nitration of salbutamol by LPO/H2O2/NO2−, A410; assay type: biochemical, bovine; conditions: 100 μM salbutamol, 67 nM LPO, 4 mM H2O2, 3.5 mM NaNO2
T2 construct: Lactoperoxidase (LPO) from bovine milk (EC 1.11.1.7); purchased Sigma-Aldrich Co. (St. Louis, Mo.); host or cells: bovine milk (natural source)
Method: Spectrophotometric Measurements. Spectra are measured using an Agilent diode array spectrophotometer model 8453 (Agilent Technologies, Inc., Santa Clara, Calif.). Nitration of salbutamol is studied by measuring absorption spectra at designated time points following the start of the reaction. Samples are prepared in 100 mM phosphate buffers (pH 7.0). All buffers contained DTPA (100 μM) or are pretreated with Chelex-100 before use, and measurements are performed at ambient temperature of 20° C. Typically, the reaction is started by the addition of a small aliquot of H2O2 or the desired peroxidase. Time course measurements are carried out following changes in absorbance at 410 nm in 30 second intervals versus absorbance at 800 nm, where none of the compounds absorb.
Ascorbate (AscH^−) is an effective natural antioxidant protecting airways from oxidative injury. Cross et al., (1994) Environ. Health Perspect. 102 (suppl. 10):185-191. Its concentration in the respiratory tract lining fluid is estimated to be near 100 μM (Id.). We examine the effect of AscH^− on nitration of 100 μM salbutamol by 67 nM LPO, 4 mM H2O2, and 3.5 mM of NaNO2 by measuring absorption at 410 nm. […] The duration of the lag period depends on AscH^− concentration. […] See, e.g., Reszka et al. (1999) Free Radic. Biol. & Med. 26:669-678.
As noted earlier, methimazole is an antithyroid drug, an effective inhibitor of LPO activity. 100 μM of salbutamol is reacted with 73 nM LPO, 3.5 mM NaNO2, and 4 mM H2O2 at pH buffer 7.0 in the presence of 0, 27, 55, and 109 μM methimazole (shown in FIG. 9, section A, traces a-d, respectively). Traces c and d also indicate by arrow when additional LPO is added to the system. […] In contrast to effects exerted by AscH^− or SCN^−, methimazole-dependent inhibition is permanent and is probably due to inactivation of the enzyme, since a second dose of LPO reactivates the process (FIG. 9, section A, trace c).
Dapsone, an anti-inflammatory and anti-leprotic agent, is a potent inhibitor of LPO and MPO. See, e.g., Kettle et al. (1991) Biochem. Pharmacol. 41(10):1485-1492; Bozeman et al. (1992) Biochem. Pharmacol. 44(2):553-563. 97 μM of salbutamol is reacted with 65 nM LPO, 3.4 mM NaNO2, and 4 mM H2O2 at pH buffer 7.0 in the presence of 0, 2.5, 5, 10, 50, and 100 μM dapsone (shown in FIG. 10, traces a-f, respectively). The arrows in traces d and e of FIG. 10 indicate where additional LPO is added to the system. […] Dapsone at 50 μM inhibited nitration by approximately 86%. Given the high concentrations of NaNO2 and H2O2 used in this system, dapsone appears to be a potent blocker of nitration.
The extent of nitration is expressed as a change in ΔA410 versus control (dapsone omitted) taken as 100% after 10, 30, and 60 minute reactions for LPO, MPO, and EPO nitrating systems, respectively. Results equal the means±SE of at least two measurements. In the LPO system, 100 μM of salbutamol, 3.4 mM of NaNO2, 4 mM of H2O2, and 65 nM of LPO is used. In the MPO system, 50 μM of salbutamol, 5.0 mM of NaNO2, 5 mM of H2O2, and 0.2 U/mL of MPO is used. In the EPO system, 50 μM of salbutamol, 5 mM of NaNO2, 2 mM of H2O2, and 0.075 U/mL of EPO is used. All reactions were carried out in pH 7.0 phosphate buffer containing DMSO (5% v/v). The term “nitrophenols” includes nitrosalbutamol (N-Sal) and salbutamol-derived nitrophenol (N—ArOH).

T1 sequence (P05164 279-745 limits assumed): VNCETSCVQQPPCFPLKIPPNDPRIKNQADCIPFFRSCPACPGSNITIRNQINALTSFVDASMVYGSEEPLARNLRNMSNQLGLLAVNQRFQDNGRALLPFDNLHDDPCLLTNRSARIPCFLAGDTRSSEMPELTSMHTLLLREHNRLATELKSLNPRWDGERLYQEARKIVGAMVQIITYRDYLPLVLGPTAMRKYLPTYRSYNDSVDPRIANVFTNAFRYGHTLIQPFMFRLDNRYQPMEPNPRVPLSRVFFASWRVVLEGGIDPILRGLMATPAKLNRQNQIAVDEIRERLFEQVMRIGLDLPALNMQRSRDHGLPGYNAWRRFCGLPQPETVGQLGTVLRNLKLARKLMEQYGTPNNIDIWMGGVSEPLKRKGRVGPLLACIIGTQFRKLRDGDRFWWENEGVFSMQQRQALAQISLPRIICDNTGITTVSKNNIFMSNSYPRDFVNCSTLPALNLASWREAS
T1 sequence (P05164 165-273 limits assumed): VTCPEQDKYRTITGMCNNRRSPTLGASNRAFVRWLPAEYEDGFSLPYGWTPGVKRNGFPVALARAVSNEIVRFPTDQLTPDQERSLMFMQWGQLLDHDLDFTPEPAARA

Salbutamol hemisulfate
EPR spectrum of ascorbate radical, more intense than with MPO/H2O2 alone (MPO [1]; 40 μM salbutamol): approximately 76%
EPR spectrum of ascorbate radical, more intense than with MPO/H2O2 alone (MPO [1]; 100 μM salbutamol): ~117%
EC50 [2]: 24.8 nM
Salbutamol transformation in vivo (nitrophenol of m/z 255.13 in breath condensate) [3]: undergoes oxidation and nitration

CC(Cc1ccc(O)cc1)NCC(O)c1cc(O)cc(O)c1 (stereo not shown) [fenoterol, fenoterol hydrobromide]
EPR spectrum of DMPO/SG adduct, intensity relative to 80 μM salbutamol (MPO [4]): two-fold
EPR spectrum of ascorbate radical, more intense than with MPO/H2O2 alone (MPO [1]; 20 μM fenoterol): 270%

O=C1O[C@H]([C@@H](O)CO)C(O)=C1O [AscH^−, ascorbic acid]
Oxidation of fenoterol by MPO/H2O2 (A315 versus time) (MPO [5]; 200 μM fenoterol): completely inhibited
Oxidation of salbutamol by MPO/H2O2 (A315 versus time) (MPO [5]; 1 mM salbutamol): completely inhibited
Nitration of salbutamol by LPO/H2O2/NO2− (A410 versus time) (LPO; AscH− at near physiological concentrations (55, 88, 109 μM)): only transiently inhibits
Nitration of salbutamol by LPO/H2O2/NO2− (A410 versus time) (LPO; ascorbate ˜1 mM): completely prevents
